Assay results as given in paper PMC7999182, “Interaction of Remdesivir with Clinically Relevant Hepatic Drug Uptake Transporters” (Pharmaceutics, 2021).

Legend:
OATP1B3 = target: T1, OATP1B3 (Homo sapiens, UniProt Q9NPD5); experiment: Remdesivir uptake into HEK cells stably expressing OATP1B3 vs vector control; type: in vitro ADME; conditions: 5 µM remdesivir, 10 min, transporter-expressing vs control HEK cells
T1 construct: expressed in transfected cells
T1 sequence (Q9NPD5 1-702): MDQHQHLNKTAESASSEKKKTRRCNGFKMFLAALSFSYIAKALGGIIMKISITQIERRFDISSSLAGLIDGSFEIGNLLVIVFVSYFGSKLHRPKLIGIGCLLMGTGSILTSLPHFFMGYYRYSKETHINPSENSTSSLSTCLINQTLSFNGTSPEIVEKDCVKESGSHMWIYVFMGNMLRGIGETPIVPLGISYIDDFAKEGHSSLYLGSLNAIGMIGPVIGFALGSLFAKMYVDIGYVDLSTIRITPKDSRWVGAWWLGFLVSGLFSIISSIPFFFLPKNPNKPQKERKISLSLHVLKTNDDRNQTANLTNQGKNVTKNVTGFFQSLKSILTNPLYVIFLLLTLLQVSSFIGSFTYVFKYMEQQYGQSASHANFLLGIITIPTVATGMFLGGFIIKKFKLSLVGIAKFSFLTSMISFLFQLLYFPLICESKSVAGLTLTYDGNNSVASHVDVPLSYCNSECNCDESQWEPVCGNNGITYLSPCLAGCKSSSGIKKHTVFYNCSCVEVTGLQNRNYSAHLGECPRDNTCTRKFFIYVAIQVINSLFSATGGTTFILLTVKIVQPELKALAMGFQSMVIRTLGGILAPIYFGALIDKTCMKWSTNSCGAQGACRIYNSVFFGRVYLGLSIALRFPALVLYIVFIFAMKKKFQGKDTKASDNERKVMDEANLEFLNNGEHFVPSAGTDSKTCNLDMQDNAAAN
From the text: (§1) Generation, cultivation and characterization of human embryonic kidney (HEK) cells stably expressing OATP1B1 refseq (=OATP1B1*1a), OATP1B1*1b, OATP1B1*5 and OATP1B1*15 [18], OATP1B3 [19], OATP2B1 [13] and OCT1 [20] have been described previously. OATP1B1 cells were cultivated in minimal essential medium (Life Technologies, Paisley, UK) and OATP1B3, OATP2B1 and OCT1 cells were cultivated in Dulbecco’s modified Eagle medium (Sigma, Darmstadt, Germany). Cultivation media were supplemented with 10% fetal calf serum, 100 U/mL penicillin and 100 µg/mL streptomycin. Cells were grown at 37 °C and 5% CO2. Functionality of the cells was confirmed by measuring uptake of prototypic substrates (see Section 2.3 and supplementary material).
(§2) Uptake assays were conducted at 37 °C according to previously described methods. For this, cells were seeded in 24-well plates (320,000 cells/well) and cultured for 2 days. Cells were then incubated for a further 24 h in culture medium with 5 mM butyrate (OATP1B3, OATP2B1, OCT1) or 10 mM butyrate (OATP1B1) to increase protein levels of recombinant transporters. […]
(§3) Remdesivir was determined by UHPLC-MS-MS analysis on an Agilent 1290 infinity UHPLC system coupled to an Agilent 6495B triple quadrupole mass spectrometer (Agilent, Waldbronn, Germany) similar to a recently published method. […]

OCT1 = target: T2, OCT1 (Homo sapiens, UniProt O15245); experiment: Remdesivir uptake into HEK cells stably expressing OCT1 vs vector control; type: in vitro ADME; conditions: 5 µM remdesivir, 10 min, transporter-expressing vs control HEK cells
T2 construct: expressed in transfected cells
T2 sequence (O15245 1-554): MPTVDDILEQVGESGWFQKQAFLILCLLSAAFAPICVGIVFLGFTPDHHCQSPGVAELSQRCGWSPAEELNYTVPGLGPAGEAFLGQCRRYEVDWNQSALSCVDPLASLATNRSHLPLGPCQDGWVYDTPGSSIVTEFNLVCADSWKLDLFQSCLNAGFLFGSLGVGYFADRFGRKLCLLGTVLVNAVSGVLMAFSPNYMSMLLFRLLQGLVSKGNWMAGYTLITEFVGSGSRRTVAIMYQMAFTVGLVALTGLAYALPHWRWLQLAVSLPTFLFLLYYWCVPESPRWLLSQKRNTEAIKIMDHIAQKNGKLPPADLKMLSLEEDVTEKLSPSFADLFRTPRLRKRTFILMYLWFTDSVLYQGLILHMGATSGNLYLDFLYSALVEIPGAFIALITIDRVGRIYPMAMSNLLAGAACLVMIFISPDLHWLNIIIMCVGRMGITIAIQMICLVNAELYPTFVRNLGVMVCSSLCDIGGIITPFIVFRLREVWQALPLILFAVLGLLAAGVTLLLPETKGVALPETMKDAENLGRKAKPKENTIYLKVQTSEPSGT
From the text: as §1, §2, §3

Molecule `CCC(CC)COC(=O)[C@H](C)N[P@](=O)(OC[C@H]1O[C@@](C#N)(c2ccc3c(N)ncnn23)[C@H](O)[C@@H]1O)Oc1ccccc1` [Remdesivir] has a Remdesivir uptake ratio (OATP1B3) of 1.5 and a Remdesivir uptake ratio (OCT1) of 1.2.
